Like-named read-outs stand apart in the source and are kept apart here.
What was measured:
HUVEC cells = assay: CCK-8 cell viability: alleviation of proliferative toxicity of anti-tumor agents on HUVEC cells (Tables 7-1, 7-2); type: cell-based; conditions: for activation at 100 µM: Homo sapiens, 24 h, percentage increase in viable cells vs anti-tumor agent alone, read-out: Response rate % (average)
Procedure, shortened: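 HUVEC cells were treated with anti-tumor agent (DMSO solvent) alone or combined with NO-NSAID (ethanol or water solvent), and NO-NSAID solvent controls were used for correction. After 24-48 h of culture, viability was read by CCK-8 to derive proliferative toxicity and how much NO-NSAID mitigated it.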

[1] = system: hand-foot syndrome induced by anti-tumor agents; assay: Prevention of hand-foot syndrome induced by anti-tumor agents in rats, NO-NSAID ointment on hind paws (Table 2-2); type: in vivo, SD rats; conditions: Rattus norvegicus, topical, read-out: Control rate; for responders at 1 %: ointment 1% wt; for responders at 3 %: ointment 3% wt
Procedure, shortened: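 Female SD rats (8 weeks, ~200 g; 10/group) received anti-tumour agents by daily oral gavage in Cremophor EL:ethanol 1:1 diluted ~3× with PBS. NO-NSAID or blank ointment was applied to hind paws once daily, 4 h restrained, then wiped off. Control rate = blank-group minus treated-group hand-foot syndrome incidence.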

[2] = Afatinib (10 μM), NO-NSAID 100 μM
[3] = Cabozantinib (5 μM), NO-NSAID 100 μM
[4] = Dabrafenib (10 μM), NO-NSAID 100 μM
[5] = Everolimus (5 μM), NO-NSAID 100 μM
[6] = Infigratinib (15 μM), NO-NSAID 100 μM
[7] = Lapatinib (5 μM), NO-NSAID 100 μM
[8] = Lenvatinib (10 μM), NO-NSAID 100 μM
[9] = Olmutinib (10 μM), NO-NSAID 100 μM
[10] = Regorafenib (5 μM), NO-NSAID 100 μM
[11] = Selumetinib (5 μM), NO-NSAID 100 μM
[12] = Sorafenib (5 μM), NO-NSAID 100 μM
[13] = Sunitinib (5 μM), NO-NSAID 100 μM
[14] = 120 h, Sorafenib 80 mg/kg once a day, Days 5
[15] = 432 h, Regorafenib 90 mg/kg once a day, Days 18

CC(=O)Oc1ccccc1C(=O)OCOC(=O)CCCCCO[N+](=O)[O-] [Compound A3] was tested, and the “NO-NSAID response rate % (average)” value (HUVEC cells; Afatinib (10 μM), NO-NSAID 0.1 μM) was 15%, the “NO-NSAID response rate % (average)” value (HUVEC cells; Afatinib (10 μM), NO-NSAID 1 μM) was 24% and the “NO-NSAID response rate % (average)” value (HUVEC cells; [2]) was 32%. For the same compound, the “NO-NSAID response rate % (average)” value (HUVEC cells; Afatinib (10 μM), NO-NSAID 500 μM) was 22%, the “NO-NSAID response rate % (average)” value (HUVEC cells; Cabozantinib (5 μM), NO-NSAID 0.1 μM) was 14% and the “NO-NSAID response rate % (average)” value (HUVEC cells; Cabozantinib (5 μM), NO-NSAID 1 μM) was 29%. For the same compound, the “NO-NSAID response rate % (average)” value (HUVEC cells; [3]) was 56%, the “NO-NSAID response rate % (average)” value (HUVEC cells; Cabozantinib (5 μM), NO-NSAID 500 μM) was 24% and the “NO-NSAID response rate % (average)” value (HUVEC cells; Dabrafenib (10 μM), NO-NSAID 0.1 μM) was 25%. The “NO-NSAID response rate % (average)” value (HUVEC cells; Dabrafenib (10 μM), NO-NSAID 1 μM) was 30%, the “NO-NSAID response rate % (average)” value (HUVEC cells; [4]) was 64% and the “NO-NSAID response rate % (average)” value (HUVEC cells; Dabrafenib (10 μM), NO-NSAID 500 μM) was 33%. For the same compound, the “NO-NSAID response rate % (average)” value (HUVEC cells; Everolimus (5 μM), NO-NSAID 0.1 μM) was −8%, the “NO-NSAID response rate % (average)” value (HUVEC cells; Everolimus (5 μM), NO-NSAID 1 μM) was −8% and the “NO-NSAID response rate % (average)” value (HUVEC cells; [5]) was 56%. For the same compound, the “NO-NSAID response rate % (average)” value (HUVEC cells; Everolimus (5 μM), NO-NSAID 500 μM) was 1%, the activation at 100 µM (HUVEC cells; [2]) was 32% and the activation at 100 µM (HUVEC cells; Anlotinib (5 μM), NO-NSAID 100 μM) was 73%. For the same compound, the activation at 100 µM (HUVEC cells; Apatinib (10 μM), NO-NSAID 100 μM) was 15%, the activation at 100 µM (HUVEC cells; Axitinib (10 μM), NO-NSAID 100 μM) was 35% and the activation at 100 µM (HUVEC cells; [3]) was 56%. It also gave an activation at 100 µM (HUVEC cells; [4]) of 64%, an activation at 100 µM (HUVEC cells; Dacomitinib (5 μM), NO-NSAID 100 μM) of 32% and an activation at 100 µM (HUVEC cells; Encorafenib (5 μM), NO-NSAID 100 μM) of 28%. The activation at 100 µM (HUVEC cells; Erdafitinib (10 μM), NO-NSAID 100 μM) was 59%, the activation at 100 µM (HUVEC cells; [5]) was 56% and the activation at 100 µM (HUVEC cells; Famitinib (5 μM), NO-NSAID 100 μM) was 39%. For the same compound, the activation at 100 µM (HUVEC cells; Fruquintinib (10 μM), NO-NSAID 100 μM) was 22%, the activation at 100 µM (HUVEC cells; Gefitinib (10 μM), NO-NSAID 100 μM) was 26% and the activation at 100 µM (HUVEC cells; [6]) was 28%. For the same compound, the activation at 100 µM (HUVEC cells; [7]) was 40%, the activation at 100 µM (HUVEC cells; [8]) was 69% and the activation at 100 µM (HUVEC cells; [9]) was 57%. The activation at 100 µM (HUVEC cells; [10]) was 55%, the activation at 100 µM (HUVEC cells; [11]) was 49% and the activation at 100 µM (HUVEC cells; [12]) was 3%. For the same compound, the activation at 100 µM (HUVEC cells; [13]) was 50%, the activation at 100 µM (HUVEC cells; Vemurafenib (5 μM), NO-NSAID 100 μM) was 80% and the “NO-NSAID response rate % (average)” value (HUVEC cells; Infigratinib (15 μM), NO-NSAID 0.1 μM) was 18%. The “NO-NSAID response rate % (average)” value (HUVEC cells; Infigratinib (15 μM), NO-NSAID 1 μM) was 28%, the “NO-NSAID response rate % (average)” value (HUVEC cells; [6]) was 28% and the “NO-NSAID response rate % (average)” value (HUVEC cells; Infigratinib (15 μM), NO-NSAID 500 μM) was 20%. For the same compound, the “NO-NSAID response rate % (average)” value (HUVEC cells; Lapatinib (5 μM), NO-NSAID 0.1 μM) was 20%, the “NO-NSAID response rate % (average)” value (HUVEC cells; Lapatinib (5 μM), NO-NSAID 1 μM) was 20% and the “NO-NSAID response rate % (average)” value (HUVEC cells; [7]) was 40%. For the same compound, the “NO-NSAID response rate % (average)” value (HUVEC cells; Lapatinib (5 μM), NO-NSAID 500 μM) was 19%, the “NO-NSAID response rate % (average)” value (HUVEC cells; Lenvatinib (10 μM), NO-NSAID 0.1 μM) was 21% and the “NO-NSAID response rate % (average)” value (HUVEC cells; Lenvatinib (10 μM), NO-NSAID 1 μM) was 14%. The “NO-NSAID response rate % (average)” value (HUVEC cells; [8]) was 69%, the “NO-NSAID response rate % (average)” value (HUVEC cells; Lenvatinib (10 μM), NO-NSAID 500 μM) was 20% and the “NO-NSAID response rate % (average)” value (HUVEC cells; Olmutinib (10 μM), NO-NSAID 0.1 μM) was 27%. The “NO-NSAID response rate % (average)” value (HUVEC cells; Olmutinib (10 μM), NO-NSAID 1 μM) was 35%, the “NO-NSAID response rate % (average)” value (HUVEC cells; [9]) was 57% and the “NO-NSAID response rate % (average)” value (HUVEC cells; Olmutinib (10 μM), NO-NSAID 500 μM) was 23%. The “NO-NSAID response rate % (average)” value (HUVEC cells; Regorafenib (5 μM), NO-NSAID 0.1 μM) was 32%, the “NO-NSAID response rate % (average)” value (HUVEC cells; Regorafenib (5 μM), NO-NSAID 1 μM) was 37% and the “NO-NSAID response rate % (average)” value (HUVEC cells; [10]) was 55%. For the same compound, the “NO-NSAID response rate % (average)” value (HUVEC cells; Regorafenib (5 μM), NO-NSAID 500 μM) was 26%, the “NO-NSAID response rate % (average)” value (HUVEC cells; Selumetinib (5 μM), NO-NSAID 0.1 μM) was 28% and the “NO-NSAID response rate % (average)” value (HUVEC cells; Selumetinib (5 μM), NO-NSAID 1 μM) was 53%. The “NO-NSAID response rate % (average)” value (HUVEC cells; [11]) was 49%, the “NO-NSAID response rate % (average)” value (HUVEC cells; Selumetinib (5 μM), NO-NSAID 500 μM) was 34% and the “NO-NSAID response rate % (average)” value (HUVEC cells; Sorafenib (5 μM), NO-NSAID 0.1 μM) was 13%. For the same compound, the “NO-NSAID response rate % (average)” value (HUVEC cells; Sorafenib (5 μM), NO-NSAID 1 μM) was 7%, the “NO-NSAID response rate % (average)” value (HUVEC cells; [12]) was 3% and the “NO-NSAID response rate % (average)” value (HUVEC cells; Sorafenib (5 μM), NO-NSAID 500 μM) was 29%. For the same compound, the “NO-NSAID response rate % (average)” value (HUVEC cells; Sunitinib (5 μM), NO-NSAID 0.1 μM) was 10%, the “NO-NSAID response rate % (average)” value (HUVEC cells; Sunitinib (5 μM), NO-NSAID 1 μM) was 37% and the “NO-NSAID response rate % (average)” value (HUVEC cells; [13]) was 50%. The “NO-NSAID response rate % (average)” value (HUVEC cells; Sunitinib (5 μM), NO-NSAID 500 μM) was 7%, the responders at 1 % [1, 14] was 50% and the responders at 3 % [1, 14] was 57.1%. The responders at 1 % [1, 15] was 42.9% and the responders at 3 % [1, 15] was 71.4%.
